# In patent US11186603B2, “Heparan sulfate glycomimetic compounds and their pharmaceutical and cosmeceutical uses” (VICTORIA LINK LIMITED, priority 2017, dated 2021):
# Several values for one entry are separate records, joined by “and”; a condition that tells them apart may be missing. Equal values may be shown once. Entries after “also recorded” stand apart in the source; their conditions may differ.
# Key:
# [1] = biological target: T1, Recombinant human heparanase (Homo sapiens, UniProt Q9Y251); experiment: Heparanase inhibition colorimetric assay (fondaparinux / WST-1); format: biochemical; details: FIGS. 1 to 3; inhibitor 1 μM, 10 μM and dose response
# T1 construct: made in house; host or cells: insect cells
# T1 sequence (Q9Y251 158-543 limits assumed): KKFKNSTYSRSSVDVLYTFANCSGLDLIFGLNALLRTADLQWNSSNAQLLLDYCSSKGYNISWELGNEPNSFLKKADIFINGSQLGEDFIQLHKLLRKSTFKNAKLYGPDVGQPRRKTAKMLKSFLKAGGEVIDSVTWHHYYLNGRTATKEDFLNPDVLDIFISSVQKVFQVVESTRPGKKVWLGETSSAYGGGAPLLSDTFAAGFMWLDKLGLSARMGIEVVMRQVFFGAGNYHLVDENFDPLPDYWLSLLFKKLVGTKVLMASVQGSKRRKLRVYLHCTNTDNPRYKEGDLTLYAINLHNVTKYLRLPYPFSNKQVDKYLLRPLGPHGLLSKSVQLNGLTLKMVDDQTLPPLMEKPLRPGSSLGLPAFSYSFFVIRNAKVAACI
# T1 sequence (Q9Y251 36-109 limits assumed): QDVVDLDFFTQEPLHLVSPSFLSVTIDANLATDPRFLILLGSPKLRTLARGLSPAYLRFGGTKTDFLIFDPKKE
# Description: The assay methodology used is described in Hammond, E., et al., Development of a colorimetric assay for heparanase activity suitable for kinetic analysis and inhibitor screening, Anal. Biochem. 2010, 396 (1), 112-116.
# Reagents were obtained from Sigma-Aldrich. Assays were carried out in 96-well microplates (Costar 9018 EIA/RIA, Corning) that had been pretreated with a solution of 4% bovine serum albumin (BSA) in phosphate-buffered saline containing 0.05% Tween 20 (PBST) for 2 h at 37° C. The plates were then washed three times with PBST and shaken dry. Pretreated plates were stored at 4° C. for up to 2 weeks before use.
# Recombinant human heparanase was expressed in insect cells and then purified from the cell medium into which it had been secreted. […] Fractions containing pure heparanase, determined by silver staining of sodium dodecyl sulfate-polyacrylamide gel electrophoresis (SDS-PAGE), were pooled, dialyzed into 10 mM sodium phosphate (pH 7.0), concentrated using Centriplus concentrating devices (Millipore), and stored at −80° C. until use.
# Assay solutions (100 μl) were composed of 40 mM sodium acetate buffer (pH 5.0) and […] fondaparinux (GlaxoSmithKline) with or without inhibitor. […] The plates were resealed with adhesive tape and developed at 60° C. for 60 min, and the absorbance was measured at 584 nm (FLUOstar, BMG Labtech).
# [2] = system: bacterial collagenase type II from Clostridium histolyticum; experiment: Colorimetric gelatinolytic assay, collagenase inhibition; format: biochemical; details: 10 μM
# Description: A colorimetric gelatinolytic assay was used to evaluate the effects of heparanase inhibitors on the activity of bacterial collagenase type II from Clostridium histolyticum. The reaction mixture was prepared in a total volume of 20 μl for each well of the microplate/inhibition assay. First, 1 ul of 100 ng of bacterial collagenase and 2 μl of the heparanase inhibitor or positive control (50 μg/ml doxycycline) were added into each well of a 96-well plate and incubated at 37° C. for 60 min. On completion of the incubation, 10 μg of gelatin and 2 μl of 10× collagenase buffer (500 mM Tris-HCl, 100 mM CaCl2, and 1.5 M NaCl) were added to distilled water to obtain the final volume of 20 μl. The plate was then incubated at 37° C. for 4 h. Subsequently, the amount of gelatin remaining was quantified by the addition of 20 μl of 2.5% w/v of Coomassie Brilliant blue R-250 (Sigma-Aldrich) dissolved in 40% methanol/10% acetic acid, followed by shaking on an orbital shaker for 5 min. The supernatant was carefully removed by pipette to ensure that the gelatin pellet was not disturbed and 50 μl of dimethyl sulfoxide was added to dissolve the pellet. The plate was incubated at room temperature for 15 min followed by shaking on an orbital shaker for 5 min. The plate was then read in a Versa max microplate reader at 600 nm.
# [3] = system: human dermal fibroblast cell line, CRL2071; experiment: Production of collagen type I (ELISA); format: cell-based
# Description: (§1) Cells from the human dermal fibroblast cell line, CRL2071 (passages 12-14), obtained from normal breast skin of a person, were allowed to attach for 6-8 hours before the addition of the test compounds. After 72 h of exposure to the test articles the media was removed, cells counted and the cell-associated fraction extracted. The media and cell-associated fraction were analysed for the concentration of collagen type I using a Chondrex Human type I Collagen Detection Kit ELISA (Cat #6021).
# After complete dissolution the solutions were sterile filtered through a […] syringe filter and kept at 4° C. until use. Prior to each experiment dilutions were freshly prepared by diluting to 100 nM, 1 μM or 10 μM in cell-specific media.
# (§2) The test compounds, positive controls and no treatment media were added to the flasks (2.5 ml/flask) and cells were incubated for 72 h before removal of the supernatant. After removal of the supernatant, cell monolayers were trypsinsed with 2.5 ml of 0.025% trypsin/[…] in PBS to each flask. After cell detachment (7-10 min), 1 ml of the cell/trypsin mixture was added to a 20 ml counting vial containing 9 ml of normal saline. The cells were quantitated with a Coulter Counter Z2.
# (§3) In some treatments cells were found floating. They were collected, counted and subjected to viability testing using 1% trypan blue staining. The remaining 1.5 ml of trypsin/cell mixture was sonicated with a Branson tip-probed sonicator for 1 min, setting 6 before centrifugation at 10,000 rpm for 10 min. The supernatant was removed and used in the collagen ELISA for the quantitation of cell-associated collagen.
# [4] = system: human dermal fibroblast cell line, CRL2071; experiment: Production of hyaluronan (ELISA); format: cell-based; details: liberated, 10 μM, 72 h
# Description: as §1, with “hyaluronan” for “collagen type I”, “Hyaluronan” for “Chondrex Human type I Collagen”, “ELISA.” for “ELISA (Cat #6021).”
# as §2
# as §3, with “hyaluronan” for “collagen”, “hyaluronan.” for “collagen.”
smiles,measurement,setting,value
O=C(CCOCC(COCCC(=O)NCCCCCCOC1OC(COS(=O)(=O)[O-])C(OS(=O)(=O)[O-])C(OS(=O)(=O)[O-])C1OS(=O)(=O)[O-])(COCCC(=O)NCCCCCCOC1OC(COS(=O)(=O)[O-])C(OS(=O)(=O)[O-])C(OS(=O)(=O)[O-])C1OS(=O)(=O)[O-])COCCC(=O)NCCCCCCOC1OC(COS(=O)(=O)[O-])C(OS(=O)(=O)[O-])C(OS(=O)(=O)[O-])C1OS(=O)(=O)[O-])NCCCCCCOC1OC(COS(=O)(=O)[O-])C(OS(=O)(=O)[O-])C(OS(=O)(=O)[O-])C1OS(=O)(=O)[O-].[Na+].[Na+].[Na+].[Na+].[Na+].[Na+].[Na+].[Na+].[Na+].[Na+].[Na+].[Na+].[Na+].[Na+].[Na+].[Na+] (stereo not shown) [Compound 17b],inhibition of heparanase (in words),[1],particularly good inhibitors; also recorded: very good inhibition of heparanase
same,"Collagenase inhibition as a % of the ""No Treatment"" control (Mean ± SD)",[2],74 ± 2%
same,"Collagen as % of No Treatment Control (Mean ± SD), Cell-associated",[3],"1,155 ± 25% and 2,371 ± 49% and 2,371%"
same,Hyaluronan as % of No Treatment Control (Mean ± SD),[4],167 ± 36p = 0.233%
